Patent US4020111A, “Propynyloxy alkyl arene insecticides” (priority 1975, dated 1977)

How the values were obtained:
mice [1] = assay: extension of Noludar sleeping time by synergists; assay type: in vivo, Swiss albino white male mice; details: Noludar 110 mg/K, synergist 110 mg/K
Procedure, shortened: (§1)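 Swiss albino male mice (~38 days, 25-30 g) given synergist at 74.0 or 110.0 mg/kg in corn oil 1 h before Secobarbital 37.0 mg/kg or Noludar 110.0 mg/kg in water. Sleeping time measured from drug dosing to righting-reflex recovery; relative sleeping time = treated ÷ drug-only control.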

mice [2] = assay: synergism of acute toxicity of Dimetilan, GS 13005, Secobarbital and Methadone (intraperitoneal); assay type: in vivo, Swiss albino white male mice; details: 48 hours, of eight mice
Procedure, shortened: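 Male Swiss albino mice (5–6 weeks, 23–27 g), eight per dose; synergist in corn oil given i.p. 1 h before i.p. insecticide or drug (drugs in distilled water). Lethality recorded over at least 6 h; controls received corn oil plus agent alone.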

[3] = system: polyvalent resistant (CH strain) houseflies; assay: whole plant or invertebrate; assay type: in vivo, housefly (CH strain); details: CH strain
mice [4] = assay: extension of Secobarbital sleeping time by synergists; assay type: in vivo, Swiss albino white male mice; details: Secobarbital 37 mg/K; for Relative Sleeping Time: treated/control
Procedure, shortened: as §1

CH strain flies = assay: spray application of pyrethrum, average percent knockdown with time; assay type: in vivo, housefly (CH strain); details: pyrethrum 100 + synergist 100 mg/cc
Description: The average percent knockdown of CH strain flies, as a function of time, resulting from spray application of pyrethrum, alone and with synergists, are given in Table XXXXIII. Duplicate tests were performed using 50 CH strain houseflies per test. Test solutions of 100 mg and 200mg of pyrethrum per cc of acetone, 200 mg of synergist per cc of acetone, and a mixture of 100 mg of pyrethrum and 100 mg of synergist per cc of acetone were prepared. The fifty CH strain houseflies were put in a 40 liter spray chamber and 1 cc of the test solution was sprayed into the test chamber with a spray pistol. The synergists alone at 200 mg/cc caused no knockdown.

houseflies = assay: percent kill with Diazinon, Table XXVII (strain not given); assay type: in vivo, housefly; details: Diazinon 5 + synergist 10 μg/fly, 1440 min

C#CCON=Cc1cccc2ccccc12 [I-I]
Mean Sleeping Time (mice [1]): 62 min | Relative Sleeping Time (mice [1]; treated/control): 2.1 | number of mice dead (mice [2]; Dimetilan 8 mg/kg + synergist 80 mg/kg ip): 0 | number of mice dead (mice [2]; Dimetilan 8 mg/kg + synergist 240 mg/kg ip): 3 | percent kill after 24 hours ([3]; GS 13005 1 + synergist 2 μg/fly): 47% | percent kill after 24 hours ([3]; Pyrethrum 2 + synergist 4 μg/fly): 52% | Mean Sleeping Time (mice [4]; synergist 74 mg/K): 31 min | Relative Sleeping Time (mice [4]; synergist 74 mg/K): 1.1 | Mean Sleeping Time (mice [4]; synergist 110 mg/K): 102 min | Relative Sleeping Time (mice [4]; synergist 110 mg/K): 1.7 | average percent knockdown (CH strain flies; 5 min): 4% | average percent knockdown (CH strain flies; 10 min): 7% | average percent knockdown (CH strain flies; 15 min): 19% | average percent knockdown (CH strain flies; 20 min): 29% | average percent knockdown (CH strain flies; 25 min): 40% | average percent knockdown (CH strain flies; 30 min): 49% | average percent knockdown (CH strain flies; 40 min): 57% | average percent knockdown (CH strain flies; 50 min): 86% | average percent knockdown (CH strain flies; 60 min): 92% | percent kill (houseflies): 55%
